Patent publication US9580379B2, “Xanthine oxidase inhibitors and methods of use” (Baylor College of Medicine, priority 2014, dated 2017)

What was measured:
[1] = Superoxide scavenging assay (xanthine-xanthine oxidase system, NBT reduction); conditions: 20 μM
Procedure: Superoxide scavenging assay—Superoxide (O2^−•) scavenging activity was assayed in the xanthine-xanthine oxidase system and determined by the inhibition of the reduction of nitro blue tetrazolium (NBT) to form blue formazan which has an absorption at 560 nm. The final concentrations of reagents used in the assay are as follows: 16.8 mU xanthine oxidase, 25 μM xanthine, 50 μM NBT, and 0.1 M phosphate buffer (pH 8.5). […] The abilities of polyphenols to scavenge O2^−• were compared with that of GSH.

xanthine oxidase = xanthine oxidase (Bos taurus, UniProt P80457); conditions: for ability to inhibit XO at a concentration of 20 μM: compared with allopurinol (FIG. 2); for influence of pre-incubation with XO on XO inhibition: pre-incubation with XO 0 to 5 min at 25° C., then 50 μM xanthine;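 as to all read-outs here: xanthine oxidase activity read as the initial rate of uric acid production, with water serving as the negative control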
DPPH scavenging assay = conditions: 20 μM compound, 100 μM DPPH, compared with vitamin C
Procedure: DPPH scavenging assay—The abilities of the polyphenols described herein to scavenge the DPPH radical were measured optically by monitoring the decreases of their absorptions at […]. […] DPPH was used at a concentration of 100 μM. Their scavenging activities were compared with that of vitamin C.

[2] = Peroxynitrite scavenging assay; conditions: 25 μM ONOO−, pH 7.4 (FIG. 7C)
Procedure: Peroxynitrite scavenging assay—Peroxynitrite (ONOO—) was generated by mixing 5 mL acidic solution (0.6 M HCl) of H2O2 (0.7 M) and 5 mL of 0.6 M KNO2 in an ice bath for 1 second and the reaction was quenched with 5 mL of ice-cold 1.2 M NaOH. Residual H2O2 was removed using granular MnO2 prewashed with 1.2 M NaOH and the reaction mixture was then left overnight at −20° C. Concentrations of ONOO^− were determined before each experiment at 302 nm using a molar extinction coefficient of 1,670 M^−1 cm^−1. The final concentrations of reagents used in the assay are as follows: 25 μM ONOO^−, 10 μM DTPA, 5 μM DHR 123, 0.1 M phosphate buffer, pH 7.4. The ONOO^− scavenging assay was performed by monitoring the oxidation of dihydrorhodamine (DHR 123) by ONOO^− spectrophotometrically at 500 nm. […] Vitamin C was used as a positive control. The concentration dependent effects of these compounds on ONOO^− scavenging were also studied and compared with that of vitamins C and E (FIG. 10).

HOCl scavenging assay = conditions: 20 μM, compared with vitamin C
Procedure: HOCl scavenging assay—HOCl was prepared immediately before use by adjusting the pH of a 1% (v/v) solution of NaOCl to pH 6.2 with 0.6 M sulfuric acid. The concentration was further determined spectrophotometrically at 235 nm using the molar extinction coefficient of 100 M^−1 cm^−1. 5-Thio-2-nitrobenzoic acid (TNB) was prepared by reducing 5,5′-dithio-bis(2-nitrobenzoic acid) (DTNB) with sodium borohydride in phosphate buffer. The final concentrations of reagents used in the assay are as follows: 25 μM HOCl, 70 μM TNB, 0 to 200 μM antioxidants, phosphate buffer, 50 mM, pH 6.6. The HOCl scavenging assay was based on the inhibition of TNB oxidation to DTNB induced by HOCl.

XO = molecular target: T1, XO (Bos taurus, UniProt P80457); experiment: Conversion of DHNB to products by XO / reaction of XO and DHNB; type: biochemical, bovine
T1 construct: Xanthine oxidase from bovine milk; purchased Sigma Chemical Co. (St. Louis, Mo.); host or cells: bovine milk
Procedure: Negative electrospray ionization-mass spectrometry (ESI-MS) and tandem (MSMS) were applied to detect and confirm the reaction products of DHNB with XO. All mass spectrometric experiments were performed on an API 3200-Qtrap triple quadrupole mass spectrometer (Applied Biosystem/MDS SCIEX; Foster City, Calif.) equipped with a TurbolonSpray™ source. The main working parameters for mass spectrum were set as follows: ion-spray voltage, −4.5 kV; ion source temperature, 600° C.; gas 1, 40 psi; gas 2, 40 psi; curtain gas, 20 psi; collision gas, high.
After that, the enzymatic activity of XO was recovered.

C57BL/6 mice = conditions: mouse, in vivo
From the text: Each mouse was monitored for general health conditions on a daily basis for 28 days, including examination of mortality, body weights, and behavior of the mice.

[3] = test system: allantoxanamide induced hyperuricemic mice; experiment: Hypouricemic effect in allantoxanamide induced hyperuricemic mice; type: in vivo; conditions: 100 mg/kg oral before allantoxanamide injection
Procedure: A hyperuricemia mouse model was used. Allantoxanamide, a potent uricase inhibitor, was used to induce hyperuricemia in mice in this study. […] The mice were subsequently intraperitoneally injected with allantoxanamide at 200 mg/kg in 0.5% CMC-Na in a volume of 0.1 ml/10 g mouse body weight just after the tested drug oral administration to increase the serum uric acid level. […] The negative control mice were administered PEG400 only followed by i.p. allantoxanamide. The normal group mice were administered PEG400 only followed by i.p. CMC-Na only. Food and water were withheld overnight prior to the study. Whole blood samples were collected from mice through orbital vein bleeding at the end of the study. The mice were anaesthetized with diethyl ether inside a chamber. The blood was allowed to clot for 1 h at room temperature and then centrifuged at 2350×g for 4 min to obtain the serum. The serum was kept on ice and assayed immediately. Serum uric acid was determined with the phosphotungstate method, as known to those of skill in the art.

mouse = conditions: oral administration once; cited from earlier work

Chain of xanthine oxidase (P80457 whole entry): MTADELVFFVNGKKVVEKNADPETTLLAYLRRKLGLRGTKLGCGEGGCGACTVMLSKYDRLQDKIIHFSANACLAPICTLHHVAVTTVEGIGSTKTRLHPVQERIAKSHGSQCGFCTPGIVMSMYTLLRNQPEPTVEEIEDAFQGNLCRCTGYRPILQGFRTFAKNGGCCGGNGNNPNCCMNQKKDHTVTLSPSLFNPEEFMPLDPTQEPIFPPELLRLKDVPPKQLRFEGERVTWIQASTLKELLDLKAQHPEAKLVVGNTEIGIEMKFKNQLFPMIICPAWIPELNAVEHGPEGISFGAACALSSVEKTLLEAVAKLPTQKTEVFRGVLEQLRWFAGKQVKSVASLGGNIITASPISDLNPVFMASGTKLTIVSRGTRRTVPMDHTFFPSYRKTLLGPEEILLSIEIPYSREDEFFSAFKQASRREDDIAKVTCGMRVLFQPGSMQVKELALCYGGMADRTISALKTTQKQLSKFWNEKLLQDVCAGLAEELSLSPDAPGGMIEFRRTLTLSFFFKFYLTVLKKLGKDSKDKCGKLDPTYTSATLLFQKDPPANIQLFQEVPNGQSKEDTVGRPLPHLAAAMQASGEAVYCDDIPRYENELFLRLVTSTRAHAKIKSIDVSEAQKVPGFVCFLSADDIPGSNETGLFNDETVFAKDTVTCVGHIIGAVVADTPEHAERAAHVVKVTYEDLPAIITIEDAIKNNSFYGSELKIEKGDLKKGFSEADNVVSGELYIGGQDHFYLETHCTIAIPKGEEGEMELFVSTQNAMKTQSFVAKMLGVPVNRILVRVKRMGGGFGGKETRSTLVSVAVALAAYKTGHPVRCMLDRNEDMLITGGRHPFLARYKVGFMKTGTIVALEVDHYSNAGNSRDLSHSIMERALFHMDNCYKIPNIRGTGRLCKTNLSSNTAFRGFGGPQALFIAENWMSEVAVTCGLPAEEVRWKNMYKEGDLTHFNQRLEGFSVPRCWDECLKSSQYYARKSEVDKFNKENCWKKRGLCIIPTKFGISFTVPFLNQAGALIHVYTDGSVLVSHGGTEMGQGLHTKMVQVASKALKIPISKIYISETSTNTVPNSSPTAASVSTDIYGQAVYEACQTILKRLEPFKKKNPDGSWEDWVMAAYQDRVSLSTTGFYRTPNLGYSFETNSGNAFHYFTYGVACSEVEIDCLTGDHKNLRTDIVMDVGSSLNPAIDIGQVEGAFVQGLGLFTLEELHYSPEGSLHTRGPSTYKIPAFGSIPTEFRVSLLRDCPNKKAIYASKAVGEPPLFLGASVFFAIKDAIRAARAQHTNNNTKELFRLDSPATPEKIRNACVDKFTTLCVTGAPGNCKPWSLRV
T1 sequence (P80457 whole entry): as above

O.O=Cc1cc(O)c(O)c(O)c1 [THB-CHO, 3,4,5-trihydroxybenzaldehyde hydrate]
scavenging effect on superoxide [1]: strong scavenging effects on superoxide
IC50 value, inhibition of XO activity (xanthine oxidase; 20 nM XO, 50 μM xanthine, phosphate buffer pH 7.4, 25° C., initial rate of uric acid formation): too high to determine
ability to inhibit XO at a concentration of 20 μM (xanthine oxidase): had inhibitory effects on XO
influence of pre-incubation with XO on XO inhibition (xanthine oxidase): pre-incubation also affected the XO inhibition
DPPH scavenging effect (DPPH scavenging assay): as strong of a DPPH scavenging effect as vitamin C
scavenging effect on ONOO− [2]: strong scavenging effect on ONOO^−
HOCl scavenging effect (HOCl scavenging assay): stronger HOCl scavenging effect than that of vitamin C

O=Cc1cc(O)c(O)c([N+](=O)[O-])c1 [DHNB, 3,4-Dihydroxy-5-nitrobenzaldehyde]
duration of inhibition of XO activity (XO; 30 μM DHNB with 15 mU/ml (30 nM) XO, phosphate buffer pH 7.4): up to 20 h
decay rate of DHNB with XO (XO; 30 μM DHNB, 30 nM XO, phosphate buffer, pH dependent (higher pH faster), absorption at 327 nm): ~10^−10 mol/L/s
conversion of inhibitor by XO after 20 h (XO; pre-incubation with XO for 20 h): converted to DHNB-COOH completely
stability without XO (XO; without XO): very stable
hair loss of pups of treated mice (C57BL/6 mice): not observed
histology analysis for the liver, kidney, and heart versus control mice (C57BL/6 mice): did not show any difference
IC50 (xanthine oxidase): 3 µM
pH dependence of XO inhibition (xanthine oxidase): neutral or slightly acidic solutions benefit the inhibition
ability to inhibit XO at a concentration of 20 μM (xanthine oxidase): had inhibitory effects on XO
time course of XO inhibition (xanthine oxidase; XO (20 nM) added to xanthine (50 μM) and inhibitor (6.67 μM) to start the reaction): time-dependent inhibition
Dixon plot, steady-state kinetic study of XO inhibition (xanthine oxidase; concentration of DHNB fixed, increasing xanthine, 1 min pre-incubation): initial rates did not change with increasing xanthine concentrations
influence of pre-incubation with XO on XO inhibition (xanthine oxidase): significantly increased the inhibition
XO activity after pre-incubation with inhibitor for 20 h (xanthine oxidase; room temperature, 20 h, DNSA 5 μM or 10 μM): XO activity was recovered
reversibility of XO inhibition (xanthine oxidase; tested condition): irreversible XO inhibitor
DPPH scavenging effect (DPPH scavenging assay): as strong of a DPPH scavenging effect as vitamin C
serum urate levels ([3]; in 2 hours): significantly lowered
serum urate levels ([3]; in 4 hours): just slightly higher than the normal level
scavenging effect on ONOO− [2]: strong scavenging effect on ONOO^−
HOCl scavenging effect (HOCl scavenging assay): moderate scavenging effect
lowest published lethal dose (mouse): 312 mg/kg
